Measurements published in ChEMBL document CHEMBL5705899 (Biochem J, 2014).
The source made the active and inactive calls. The calls are words filed in the database; no cut-off is given here.

What was measured:
[1] = target: Mitogen-activated protein kinase kinase kinase 11 (Homo sapiens) (UniProt Q16584); assay: Inhibition of recombinant human N-terminal GST-tagged MLK3 (96 to 386 residues) expressed in baculovirus infected Sf21 cells assessed as remaining activity at 1 uM using MBP as substrate incubated for 30 mins in presence of [gamma-33P]ATP by filter binding method relative to control
Sequence of Mitogen-activated protein kinase kinase kinase 11 (Homo sapiens) (Q16584 whole entry, looked up, the tested form may be a part): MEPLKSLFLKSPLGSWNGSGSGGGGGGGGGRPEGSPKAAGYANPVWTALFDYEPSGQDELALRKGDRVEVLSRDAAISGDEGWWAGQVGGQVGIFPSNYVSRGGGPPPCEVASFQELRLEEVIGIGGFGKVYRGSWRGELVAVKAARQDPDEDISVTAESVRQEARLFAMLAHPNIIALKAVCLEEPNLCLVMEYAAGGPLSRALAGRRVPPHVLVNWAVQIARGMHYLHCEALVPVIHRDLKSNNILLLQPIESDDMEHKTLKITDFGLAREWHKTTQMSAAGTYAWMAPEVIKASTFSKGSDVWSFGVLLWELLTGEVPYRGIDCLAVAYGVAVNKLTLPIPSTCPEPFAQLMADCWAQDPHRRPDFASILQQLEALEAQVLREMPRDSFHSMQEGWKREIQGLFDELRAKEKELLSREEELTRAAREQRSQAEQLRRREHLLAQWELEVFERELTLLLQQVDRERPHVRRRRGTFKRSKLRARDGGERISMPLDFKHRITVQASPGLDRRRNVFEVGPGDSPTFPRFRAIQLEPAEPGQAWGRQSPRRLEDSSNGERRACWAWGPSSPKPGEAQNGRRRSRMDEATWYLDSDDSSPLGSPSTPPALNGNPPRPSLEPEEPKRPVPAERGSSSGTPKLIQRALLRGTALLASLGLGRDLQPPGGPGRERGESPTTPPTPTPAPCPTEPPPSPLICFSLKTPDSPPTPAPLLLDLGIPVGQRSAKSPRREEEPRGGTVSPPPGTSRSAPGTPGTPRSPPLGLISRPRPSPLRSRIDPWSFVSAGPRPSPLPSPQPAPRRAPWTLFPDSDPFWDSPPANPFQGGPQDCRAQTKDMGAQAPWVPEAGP

[2] = target: Ephrin type-B receptor 3 (Homo sapiens) (UniProt P54753); assay: Inhibition of recombinant human N-terminal His6-tagged EPHB3 (561 to 998 residues) expressed in Escherichia coli assessed as remaining activity at 1 uM using Poly(Glu, Tyr) as substrate incubated for 30 mins in presence of [gamma-33P]ATP by filter binding method relative to control
[3] = target: MAP kinase-activated protein kinase 2 (Homo sapiens) (UniProt P49137); assay: Inhibition of recombinant human N-terminal GST/C-terminal Myc-tagged MAPKAPK2 (46 to 400 residues) expressed in Escherichia coli assessed as remaining activity at 1 uM using KKLNRTLSVA as substrate incubated for 30 mins in presence of [gamma-33P]ATP by filter binding method relative to control
[4] = target: Maternal embryonic leucine zipper kinase (Homo sapiens) (UniProt Q14680); assay: Inhibition of recombinant human N-terminal GST/C-terminal His6-tagged MELK (2 to 651 residues) expressed in Escherichia coli assessed as remaining activity at 1 uM using KKLNRTLSFAEPG as substrate incubated for 30 mins in presence of [gamma-33P]ATP by filter binding method relative to control
[5] = target: Serine/threonine-protein kinase PAK 4 (Homo sapiens) (UniProt O96013); assay: Inhibition of recombinant human N-terminal GST-tagged PAK4 (2 to 519 residues) expressed in Escherichia coli assessed as remaining activity at 1 uM using RRRLSFAEPG as substrate incubated for 30 mins in presence of [gamma-33P]ATP by filter binding method relative to control
[6] = target: Serine/threonine-protein kinase PAK 5 (Homo sapiens) (UniProt Q9P286); assay: Inhibition of recombinant human N-terminal GST-tagged PAK5 (2 to 719 residues) expressed in Escherichia coli assessed as remaining activity at 1 uM using RRRLSFAEPG as substrate incubated for 30 mins in presence of [gamma-33P]ATP by filter binding method relative to control
[7] = target: Angiopoietin-1 receptor (Homo sapiens) (UniProt Q02763); assay: Inhibition of human TIE2 at 1 uM using polyEY as substrate in presence of 33P-ATP by ProQinase assay
[8] = target: Tyrosine-protein kinase Lck (Homo sapiens) (UniProt P06239); assay: Inhibition of human LCK at 1 uM using polyEY as substrate in presence of 33P-ATP by ProQinase assay
[9] = target: Megakaryocyte-associated tyrosine-protein kinase (Homo sapiens) (UniProt P42679); assay: Inhibition of human MATK at 1 uM using polyEy as substrate in presence of 33P-ATP by ProQinase assay
[10] = target: TGF-beta receptor type-1 (Homo sapiens) (UniProt P36897); assay: Inhibition of human TGFBR1 at 1 uM using RBER-CHKtide as substrate in presence of 33P-ATP by ProQinase assay
Sequence of TGF-beta receptor type-1 (Homo sapiens) (P36897 whole entry): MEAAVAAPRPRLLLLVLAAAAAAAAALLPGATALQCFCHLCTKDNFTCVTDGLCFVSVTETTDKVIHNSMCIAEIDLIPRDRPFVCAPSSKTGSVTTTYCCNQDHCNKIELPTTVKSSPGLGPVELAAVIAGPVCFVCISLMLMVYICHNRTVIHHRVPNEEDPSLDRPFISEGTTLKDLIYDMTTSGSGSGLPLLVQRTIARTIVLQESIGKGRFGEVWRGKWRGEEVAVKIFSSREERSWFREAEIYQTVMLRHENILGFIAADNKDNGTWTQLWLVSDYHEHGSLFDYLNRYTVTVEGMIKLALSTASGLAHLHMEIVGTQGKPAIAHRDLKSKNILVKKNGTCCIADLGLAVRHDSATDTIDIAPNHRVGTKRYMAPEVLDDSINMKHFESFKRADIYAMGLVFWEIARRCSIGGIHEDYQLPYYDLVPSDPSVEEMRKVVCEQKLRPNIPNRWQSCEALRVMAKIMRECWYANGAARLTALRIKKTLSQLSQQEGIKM

[11] = target: Serine/threonine-protein kinase 3 (Homo sapiens) (UniProt Q13188); assay: Inhibition of human MST2 at 1 uM using RB-CTF as substrate in presence of 33P-ATP by ProQinase assay
[12] = target: Rho-associated protein kinase 2 (Homo sapiens) (UniProt O75116); assay: Inhibition of human ROCK2 at 1 uM using RB-S6P as substrate in presence of 33P-ATP by ProQinase assay
Sequence of Rho-associated protein kinase 2 (Homo sapiens) (O75116 whole entry, looked up): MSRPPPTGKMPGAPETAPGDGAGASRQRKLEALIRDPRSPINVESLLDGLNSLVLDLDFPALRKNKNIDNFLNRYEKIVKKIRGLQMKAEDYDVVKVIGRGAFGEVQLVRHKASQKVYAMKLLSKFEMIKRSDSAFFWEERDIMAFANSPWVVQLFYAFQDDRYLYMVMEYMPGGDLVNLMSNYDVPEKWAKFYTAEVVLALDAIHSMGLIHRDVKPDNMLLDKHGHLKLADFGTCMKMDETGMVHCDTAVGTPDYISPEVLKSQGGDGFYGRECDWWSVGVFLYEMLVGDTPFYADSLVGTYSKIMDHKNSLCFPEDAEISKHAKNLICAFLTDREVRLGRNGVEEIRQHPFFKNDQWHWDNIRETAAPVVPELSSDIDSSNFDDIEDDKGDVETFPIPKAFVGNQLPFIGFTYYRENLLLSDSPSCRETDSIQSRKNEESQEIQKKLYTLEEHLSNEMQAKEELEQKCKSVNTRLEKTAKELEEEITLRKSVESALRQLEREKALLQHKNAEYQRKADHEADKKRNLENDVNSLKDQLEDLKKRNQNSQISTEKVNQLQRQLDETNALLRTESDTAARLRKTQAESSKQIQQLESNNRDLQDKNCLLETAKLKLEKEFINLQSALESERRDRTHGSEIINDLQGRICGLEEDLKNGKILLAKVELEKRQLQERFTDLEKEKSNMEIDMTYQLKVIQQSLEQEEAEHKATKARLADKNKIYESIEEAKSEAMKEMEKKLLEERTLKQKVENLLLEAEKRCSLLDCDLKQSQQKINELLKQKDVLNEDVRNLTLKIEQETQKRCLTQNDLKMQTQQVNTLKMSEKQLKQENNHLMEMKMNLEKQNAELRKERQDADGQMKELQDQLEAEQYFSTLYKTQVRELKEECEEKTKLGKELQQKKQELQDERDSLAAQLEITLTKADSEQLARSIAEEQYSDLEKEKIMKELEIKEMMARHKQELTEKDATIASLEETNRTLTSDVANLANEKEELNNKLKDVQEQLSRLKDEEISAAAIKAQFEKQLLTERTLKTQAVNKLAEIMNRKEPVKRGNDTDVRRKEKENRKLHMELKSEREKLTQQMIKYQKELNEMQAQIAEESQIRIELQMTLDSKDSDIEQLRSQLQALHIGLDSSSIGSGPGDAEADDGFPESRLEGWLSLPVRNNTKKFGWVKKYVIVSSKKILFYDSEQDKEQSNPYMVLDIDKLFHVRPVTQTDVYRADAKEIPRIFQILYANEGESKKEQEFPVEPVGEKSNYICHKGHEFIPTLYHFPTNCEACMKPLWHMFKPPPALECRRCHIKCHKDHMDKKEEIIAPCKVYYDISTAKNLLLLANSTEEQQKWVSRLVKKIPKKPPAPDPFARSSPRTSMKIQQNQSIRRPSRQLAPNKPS

[13] = target: Serine/threonine-protein kinase PAK 1 (Homo sapiens) (UniProt Q13153); assay: Inhibition of human PAK1 at 1 uM using RBER-CHKtide as substrate in presence of 33P-ATP by ProQinase assay
[14] = target: Cyclin-dependent kinase 4/cyclin D1 (Homo sapiens) (UniProt P11802+P24385); assay: Inhibition of human CDK4/CyclinD1 at 1 uM using RBER-CHKtide, as substrate in presence of 33P-ATP by ProQinase assay; type: protein-complex assay
[15] = target: Dual specificity tyrosine-phosphorylation-regulated kinase 1A (Homo sapiens) (UniProt Q13627); assay: Inhibition of human DYRK1A at 1 uM using RBER-CHKtide as substrate in presence of 33P-ATP by ProQinase assay
[16] = target: Lymphokine-activated killer T-cell-originated protein kinase (Homo sapiens) (UniProt Q96KB5); assay: Inhibition of human PBK at 1 uM using histon H1 as substrate in presence of 33P-ATP by ProQinase assay
[17] = target: Mitogen-activated protein kinase kinase kinase 11 (Homo sapiens) (UniProt Q16584); assay: Inhibition of human MAP3K11 at 1 uM using MBP as substrate in presence of 33P-ATP by ProQinase assay
[18] = target: Casein kinase II subunit alpha (Homo sapiens) (UniProt P68400); assay: Inhibition of human CK2alpha1 at 1 uM using casein as substrate in presence of 33P-ATP by ProQinase assay
Sequence of Casein kinase II subunit alpha (Homo sapiens) (P68400 whole entry, looked up): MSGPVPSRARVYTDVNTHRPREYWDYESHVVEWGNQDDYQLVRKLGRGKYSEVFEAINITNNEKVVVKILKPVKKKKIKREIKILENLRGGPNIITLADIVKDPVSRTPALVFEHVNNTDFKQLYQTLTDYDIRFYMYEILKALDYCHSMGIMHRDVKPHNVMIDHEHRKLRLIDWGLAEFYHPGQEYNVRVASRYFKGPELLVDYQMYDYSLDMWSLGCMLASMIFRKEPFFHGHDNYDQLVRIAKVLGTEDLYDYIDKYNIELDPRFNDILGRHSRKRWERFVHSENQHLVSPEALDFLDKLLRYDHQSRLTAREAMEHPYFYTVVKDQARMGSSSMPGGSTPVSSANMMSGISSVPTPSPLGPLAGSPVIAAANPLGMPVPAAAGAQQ

[19] = target: Aurora kinase B (Homo sapiens) (UniProt Q96GD4); assay: Inhibition of human AuroraB at 1 uM using bio-4xCHKT as substrate in presence of 33P-ATP by ProQinase assay
[20] = target: Serine/threonine-protein kinase haspin (Homo sapiens) (UniProt Q8TF76); assay: Inhibition of human GSG2 at 1 uM using histon H3 as substrate in presence of 33P-ATP by ProQinase assay
[21] = target: Testis-specific serine/threonine-protein kinase 1 (Homo sapiens) (UniProt Q9BXA7); assay: Inhibition of human TSSK1 at 1 uM using RBER-CHKtide as substrate in presence of 33P-ATP by ProQinase assay
[22] = target: Serine/threonine-protein kinase 16 (Homo sapiens) (UniProt O75716); assay: Inhibition of human TSF1 at 1 uM using casein as substrate in presence of 33P-ATP by ProQinase assay
Sequence of Serine/threonine-protein kinase 16 (Homo sapiens) (O75716 whole entry): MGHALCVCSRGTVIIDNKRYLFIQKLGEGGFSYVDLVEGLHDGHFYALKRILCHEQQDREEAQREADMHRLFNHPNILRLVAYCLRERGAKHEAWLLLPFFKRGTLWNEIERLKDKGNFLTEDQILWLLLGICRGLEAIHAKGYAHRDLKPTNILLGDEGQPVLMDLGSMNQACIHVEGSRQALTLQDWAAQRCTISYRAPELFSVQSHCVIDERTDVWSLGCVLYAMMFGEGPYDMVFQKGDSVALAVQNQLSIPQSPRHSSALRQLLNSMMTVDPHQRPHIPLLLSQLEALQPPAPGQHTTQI

[23] = target: Serine/threonine-protein kinase 17A (Homo sapiens) (UniProt Q9UEE5); assay: Inhibition of human STK17A at 1 uM using RB-CTF as substrate in presence of 33P-ATP by ProQinase assay
[24] = target: Sphingosine kinase 2 (Homo sapiens) (UniProt Q9NRA0); assay: Inhibition of recombinant human N-terminal His6-tagged SPHK2 (1 to 654 residues) expressed in baculovirus expression system at 1 uM using sphingosine as substrate incubated for 40 mins by ADP-Glo assay
[25] = target: Sphingosine kinase 1 (Homo sapiens) (UniProt Q9NYA1); assay: Inhibition of recombinant human N-terminal His6-tagged SPHK1 (1 to 384 residues) expressed in baculovirus expression system at 1 uM using sphingosine as substrate incubated for 40 mins by ADP-Glo assay
Sequence of Sphingosine kinase 1 (Homo sapiens) (Q9NYA1 whole entry, the tested form may be a part, canonical isoform): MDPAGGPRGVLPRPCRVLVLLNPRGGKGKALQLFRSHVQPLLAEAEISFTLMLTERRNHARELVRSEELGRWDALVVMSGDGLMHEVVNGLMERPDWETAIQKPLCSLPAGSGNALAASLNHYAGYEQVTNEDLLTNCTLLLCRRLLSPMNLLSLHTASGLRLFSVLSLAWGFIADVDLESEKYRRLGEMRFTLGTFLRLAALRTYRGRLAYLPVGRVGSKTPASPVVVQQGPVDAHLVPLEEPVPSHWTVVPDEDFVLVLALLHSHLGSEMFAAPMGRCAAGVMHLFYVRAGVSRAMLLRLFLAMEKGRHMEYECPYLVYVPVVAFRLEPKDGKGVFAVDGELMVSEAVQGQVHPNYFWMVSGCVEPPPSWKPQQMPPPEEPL

[26] = target: Phosphatidylinositol 4,5-bisphosphate 3-kinase catalytic subunit gamma isoform (Homo sapiens, UniProt P48736); assay: Inhibition of human PIK3CG using PIP2/PS as substrate by ADP-Glo assay
Sequence of Phosphatidylinositol 4,5-bisphosphate 3-kinase catalytic subunit gamma isoform (P48736 whole entry, canonical isoform): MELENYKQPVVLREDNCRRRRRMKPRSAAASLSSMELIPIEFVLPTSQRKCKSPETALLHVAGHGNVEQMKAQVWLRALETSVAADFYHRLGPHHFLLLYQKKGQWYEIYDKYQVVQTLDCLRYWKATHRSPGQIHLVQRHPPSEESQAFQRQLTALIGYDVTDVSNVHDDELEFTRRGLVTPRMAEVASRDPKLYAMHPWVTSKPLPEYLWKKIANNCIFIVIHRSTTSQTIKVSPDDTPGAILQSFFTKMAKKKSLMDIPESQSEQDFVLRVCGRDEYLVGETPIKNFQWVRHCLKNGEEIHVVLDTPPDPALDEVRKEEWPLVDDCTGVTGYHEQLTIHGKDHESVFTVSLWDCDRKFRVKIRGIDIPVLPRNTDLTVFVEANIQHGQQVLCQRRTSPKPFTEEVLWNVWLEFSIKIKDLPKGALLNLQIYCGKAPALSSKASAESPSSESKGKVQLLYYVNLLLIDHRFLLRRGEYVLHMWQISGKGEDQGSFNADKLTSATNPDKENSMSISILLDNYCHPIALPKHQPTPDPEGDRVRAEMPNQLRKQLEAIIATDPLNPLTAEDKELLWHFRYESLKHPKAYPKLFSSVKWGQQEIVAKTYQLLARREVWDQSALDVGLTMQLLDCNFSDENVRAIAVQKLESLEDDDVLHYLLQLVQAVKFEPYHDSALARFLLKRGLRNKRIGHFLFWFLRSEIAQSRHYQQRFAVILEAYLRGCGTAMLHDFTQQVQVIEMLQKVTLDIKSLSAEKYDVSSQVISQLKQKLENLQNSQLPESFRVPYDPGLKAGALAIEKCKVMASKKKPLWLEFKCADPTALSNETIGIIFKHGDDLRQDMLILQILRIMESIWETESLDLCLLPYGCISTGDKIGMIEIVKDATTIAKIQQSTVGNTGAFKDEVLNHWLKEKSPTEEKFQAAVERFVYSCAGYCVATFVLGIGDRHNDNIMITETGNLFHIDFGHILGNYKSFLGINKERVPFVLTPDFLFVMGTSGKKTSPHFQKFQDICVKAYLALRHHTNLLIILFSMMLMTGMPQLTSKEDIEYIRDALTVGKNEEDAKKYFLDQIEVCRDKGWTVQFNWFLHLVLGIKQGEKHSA

CC(C)(O)CNc1ncc(-c2ccnc(Nc3ccnc(Cl)c3)n2)c(CC2CC2)n1
Activity [1]: 129%
Activity [2]: 111%
Activity [3]: 110%
Activity [4]: 108%
Activity [5]: 103%
Activity [6]: 96%
inhibition [7]: inactive
inhibition [8]: inactive
inhibition [9]: inactive
inhibition [10]: inactive
inhibition [11]: inactive
inhibition [12]: inactive
inhibition [13]: inactive
inhibition [14]: inactive
inhibition [15]: inactive
inhibition [16]: inactive
inhibition [17]: inactive
inhibition [18]: inactive
inhibition [19]: inactive
inhibition [20]: inactive
inhibition [21]: inactive
inhibition [22]: inactive
inhibition [23]: inactive
inhibition [24]: inactive
inhibition [25]: inactive
IC50 [26]: > 10 µM
